Results reported in patent publication US4520022A, “Substituted vinyl cephalosporins” (priority 1983, dated 1985).
Values after ≈ are worked out from the molar mass of the structure shown. Read-outs that look alike come from different tables or passages of the source.

How the values were obtained:
[1] = tested on: E. coli Juhl; experiment: Protective dose, mice infected with lethal inoculum, oral treatment, E. coli Juhl; assay type: in vivo; settings: Escherichia coli, po, 120 h, read-out: Protective dose (PD50), E. coli Juhl
[2] = tested on: S. aureus Smith; experiment: Protective dose, mice infected with lethal inoculum, oral treatment, S. aureus Smith; assay type: in vivo; settings: Staphylococcus aureus, po, 120 h, read-out: Protective dose (PD50), S. aureus Smith
[3] = tested on: Gp Ia: S. aureus Smith A9537, A9497, Terajima, A9534, A9601; settings: Staphylococcus aureus, read-out: Minimum Inhibitory Concentration Gp Ia, Mueller-Hinton agar; run 1; average of five organisms
[4] = in vivo; settings: mouse; for half-life: T1/2
[5] = tested on: Gp Ib: S. aureus 193, BX-1633-2 A9606, A15092, Russell, A9602; settings: Staphylococcus aureus
[6] = tested on: H. influenzae; experiment: In vitro activity against Haemophilis (MIC), H. influenzae; assay type: cell-based; settings: Haemophilus influenzae, Compound 9 lot 2
[7] = tested on: N. meningitidis; experiment: In vitro activity against Neisseria (MIC), N. meningitidis; assay type: cell-based
[8] = tested on: S. pneumoniae; experiment: In vitro activity against Streptococci (MIC), S. pneumoniae; assay type: cell-based; settings: Streptococcus pneumoniae, Compound 9 lot 2
[9] = tested on: N. gonorrheae; experiment: In vitro activity against Neisseria (MIC), N. gonorrheae; assay type: cell-based
[10] = tested on: S. pyogenes; experiment: In vitro activity against Streptococci (MIC), S. pyogenes; assay type: cell-based; settings: Streptococcus pyogenes, Compound 9 lot 2
[11] = oral, 50% survival for 5 days, groups of 5 mice
[12] = read-out: Minimum Inhibitory Concentration Gp Ib, Mueller-Hinton agar, run 1, average of five organisms

`CC/C=C\C1=C(C(=O)[O-])N2C(=O)[C@@H](NC(=O)[C@H](N)c3ccc(O)cc3)[C@H]2SC1.[Na+]` showed an ED50 [1] of 3 mg/kg, an ED50 [2] of 0.32 mg/kg and an MIC [3] of 0.4 µg/mL. It also gave an AUC ([4]; im, 20 mg/kg, AUC*, Run 1, * mean of 3 runs) of 20000 ng·h/mL, a Cmax ([4]; im, 20 mg/kg) of 25000 ng/mL and a half-life ([4]; im, 20 mg/kg) of 0.74 h. For the same molecule, the AUC ([4]; po, 20 mg/kg, AUC*, Run 1, * mean of 3 runs) was 41000 ng·h/mL, the Cmax ([4]; po, 20 mg/kg) was 13000 ng/mL and the half-life ([4]; po, 20 mg/kg) was 2 h. For the same molecule, the AUC ([4]; po, 100 mg/kg, AUC) was 150000 ng·h/mL, the Cmax ([4]; po, 100 mg/kg) was 51000 ng/mL and the half-life ([4]; po, 100 mg/kg) was 1.9 h. The MIC ([5]; read-out: Minimum Inhibitory Concentration Gp Ib) was 1.4 µg/mL.

`C/C=C/C1=C(C(=O)O)N2C(=O)[C@@H](NC(=O)[C@H](N)c3ccc(O)cc3)[C@H]2SC1` [Compound 8, 7β-[D-2-Amino-2-(p-hydroxyphenyl)acetamido]-3-[(E)-1-propen-1-yl]-3-cephem-4-carboxylic Acid] gave an ED50 [1, 11] of 7.5 mg/kg, an ED50 [2, 11] of 0.2 mg/kg and an MIC [3] of 0.26 µg/mL (≈ 0.668 µM). The AUC ([4]; im, 20 mg/kg, AUC*) was 31000 ng·h/mL, the Cmax ([4]; im, 20 mg/kg) was 31000 ng/mL and the half-life ([4]; im, 20 mg/kg) was 0.63 h. The AUC ([4]; po, 20 mg/kg, AUC*) was 22000 ng·h/mL, the Cmax ([4]; po, 20 mg/kg) was 10000 ng/mL and the half-life ([4]; po, 20 mg/kg) was 1.3 h. It also gave an AUC ([4]; po, 100 mg/kg, AUC) of 69000 ng·h/mL, a Cmax ([4]; po, 100 mg/kg) of 30000 ng/mL and a half-life ([4]; po, 100 mg/kg) of 1.4 h. The MIC [5, 12] was 1.4 µg/mL (≈ 3.59 µM).

`C=CC1=C(C(=O)O)N2C(=O)[C@@H](NC(=O)[C@H](N)c3ccc(O)cc3)[C@H]2SC1` [Compound 11] showed an ED50 [1, 11] of 3.8 mg/kg, an ED50 [2, 11] of 0.18 mg/kg and an MIC [3] of 0.4 µg/mL (≈ 1.07 µM). The AUC ([4]; im, 20 mg/kg, AUC*) was 15000 ng·h/mL, the Cmax ([4]; im, 20 mg/kg) was 23000 ng/mL and the half-life ([4]; im, 20 mg/kg) was 0.37 h. The AUC ([4]; po, 20 mg/kg, AUC*) was 13000 ng·h/mL, the Cmax ([4]; po, 20 mg/kg) was 11000 ng/mL and the half-life ([4]; po, 20 mg/kg) was 1.4 h. The AUC ([4]; po, 100 mg/kg, AUC) was 49000 ng·h/mL, the Cmax ([4]; po, 100 mg/kg) was 43000 ng/mL and the half-life ([4]; po, 100 mg/kg) was 1.2 h. For the same molecule, the MIC [5, 12] was 1.2 µg/mL (≈ 3.2 µM).

For `N[C@@H](C(=O)N[C@@H]1C(=O)N2C(C(=O)O)=C(/C=C\Cc3ccccc3)CS[C@H]12)c1ccc(O)cc1` [Compound 15, 7β-[D-2-Amino-2-(p-hydroxyphenyl)acetamido]-3-[(Z)-3-phenyl-1-propen-1-yl]-3-cephem-4-carboxylic acid], the MIC ([6]; H. influenzae A9729, read-out: MIC) was > 100 µg/mL, the MIC ([6]; H. influenzae A9833, read-out: MIC) was > 100 µg/mL and the MIC ([6]; H. influenzae A20177, read-out: MIC) was > 100 µg/mL. The MIC ([6]; H. influenzae A20193, read-out: MIC) was > 100 µg/mL, the MIC ([6]; H. influenzae A21523, read-out: MIC) was > 100 µg/mL and the MIC ([6]; H. influenzae A22157, read-out: MIC) was 25 µg/mL (≈ 53.7 µM). The MIC ([6]; H. influenzae A22481, read-out: MIC) was 25 µg/mL (≈ 53.7 µM), the MIC ([6]; H. influenzae A22482, read-out: MIC) was > 100 µg/mL and the MIC ([6]; H. influenzae A22483, read-out: MIC) was > 100 µg/mL. The MIC ([6]; H. influenzae A22491, read-out: MIC) was 25 µg/mL (≈ 53.7 µM), the MIC ([6]; H. influenzae, seven strains above, read-out: MIC, Geometric Mean) was > 100 µg/mL and the MIC ([7]; N. meningitidis A21487, Compound 9 lot 2) was > 100 µg/mL. The MIC ([7]; N. meningitidis A21496, Compound 9 lot 2) was > 100 µg/mL, the MIC ([7]; N. meningitidis A21497, Compound 9 lot 2) was > 100 µg/mL and the MIC ([7]; Neisseria meningitidis, read-out: MIC) was > 100 µg/mL. For the same molecule, the MIC ([7]; Neisseria meningitidis, read-out: MIC, Geometric Mean) was > 100 µg/mL, the MIC ([8]; S. pneumoniae A9585, read-out: MIC) was 0.4 µg/mL (≈ 0.859 µM) and the MIC ([8]; S. pneumoniae A15069, read-out: MIC) was 0.2 µg/mL (≈ 0.43 µM). It also gave an MIC ([8]; S. pneumoniae A20759, read-out: MIC) of 0.4 µg/mL (≈ 0.859 µM), an MIC ([8]; S. pneumoniae Type I, read-out: MIC) of 0.2 µg/mL (≈ 0.43 µM) and an MIC ([8]; S. pneumoniae Type II, I, III, A9585, A15069, read-out: MIC, Geometric Mean) of 0.23 µg/mL (≈ 0.494 µM). For the same molecule, the MIC ([8]; S. pneumoniae Type II, read-out: MIC) was 0.2 µg/mL (≈ 0.43 µM), the MIC ([8]; S. pneumoniae Type III, read-out: MIC) was 0.2 µg/mL (≈ 0.43 µM) and the MIC ([9]; N. gonorrheae A20142, Compound 9 lot 2) was > 100 µg/mL. The MIC ([9]; N. gonorrheae A20143, Compound 9 lot 2) was > 100 µg/mL, the MIC ([9]; N. gonorrheae A20154, Compound 9 lot 2) was > 100 µg/mL and the MIC ([9]; N. gonorrheae A20155, Compound 9 lot 2) was > 100 µg/mL. The MIC ([9]; read-out: MIC) was > 100 µg/mL, the MIC ([9]; read-out: MIC, Geometric Mean) was > 100 µg/mL and the MIC [3] was 0.2 µg/mL (≈ 0.43 µM). It also gave an AUC ([4]; im, 20 mg/kg, AUC*) of 52000 ng·h/mL, a Cmax ([4]; im, 20 mg/kg) of 31000 ng/mL and a half-life ([4]; im, 20 mg/kg) of 0.99 h. For the same molecule, the AUC ([4]; po, 20 mg/kg, AUC*) was 38000 ng·h/mL, the Cmax ([4]; po, 20 mg/kg) was 12000 ng/mL and the half-life ([4]; po, 20 mg/kg) was 2.7 h. For the same molecule, the AUC ([4]; po, 100 mg/kg, AUC) was 81000 ng·h/mL, the Cmax ([4]; po, 100 mg/kg) was 41000 ng/mL and the half-life ([4]; po, 100 mg/kg) was 2.7 h. It also gave an MIC ([10]; S. pyogenes A9604, read-out: MIC) of 0.2 µg/mL (≈ 0.43 µM), an MIC ([10]; S. pyogenes A15040, read-out: MIC) of 0.2 µg/mL (≈ 0.43 µM) and an MIC ([10]; S. pyogenes A20065, read-out: MIC) of 0.2 µg/mL (≈ 0.43 µM). It also gave an MIC ([10]; S. pyogenes A20201, read-out: MIC) of 0.2 µg/mL (≈ 0.43 µM), an MIC ([10]; S. pyogenes Dick, read-out: MIC) of 0.2 µg/mL (≈ 0.43 µM) and an MIC ([10]; S. pyogenes S-23, Dick, A9604, A20065, A15040, read-out: MIC, Geometric Mean) of 0.2 µg/mL (≈ 0.43 µM). For the same molecule, the MIC ([10]; S. pyogenes S-23, read-out: MIC) was 0.2 µg/mL (≈ 0.43 µM) and the MIC [5, 12] was 0.7 µg/mL (≈ 1.5 µM).
